Read-outs that look alike come from different tables or passages of the source.

Holding throughout (test): SelectScreen Kinase Profiling, single point inhibition and IC50 for off-target kinases
Common to all, as to format: biochemical

Experiment [1] concerns the target off-target kinases (Homo sapiens, UniProt P00533, L858R). As to conditions: EGFR (ErbB1) L858R (mutant), ZLYTE, ATP Km app.
Experiment [2] addresses off-target kinases (Homo sapiens, UniProt P00533, T790M). Conditions: EGFR (ErbB1) T790M, mutant y, ZLYTE, ATP Km app.
Experiment [3] deals with off-target kinases (Homo sapiens, UniProt P35968). As to conditions: KDR (VEGFR2), ATP Km app, ZLYTE.
The target of experiment [4] is T1, off-target kinases (Homo sapiens, UniProt P51955).
T1 sequence (P51955 1-445): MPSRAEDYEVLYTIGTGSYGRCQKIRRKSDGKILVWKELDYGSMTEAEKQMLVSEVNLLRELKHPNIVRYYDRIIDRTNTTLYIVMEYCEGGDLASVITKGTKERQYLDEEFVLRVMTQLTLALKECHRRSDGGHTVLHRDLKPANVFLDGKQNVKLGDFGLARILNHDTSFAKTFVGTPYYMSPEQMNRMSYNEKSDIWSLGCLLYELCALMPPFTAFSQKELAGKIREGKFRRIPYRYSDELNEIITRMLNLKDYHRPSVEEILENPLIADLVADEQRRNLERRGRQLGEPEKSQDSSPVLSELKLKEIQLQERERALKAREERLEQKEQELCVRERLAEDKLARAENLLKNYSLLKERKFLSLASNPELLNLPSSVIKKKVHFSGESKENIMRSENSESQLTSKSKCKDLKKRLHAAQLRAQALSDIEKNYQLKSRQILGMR
Conditions: NEK2, ZLYTE, ATP Km app.

Experiment [5] deals with T2, off-target kinases (Homo sapiens, UniProt Q09013).
T2 sequence (Q09013 1-629): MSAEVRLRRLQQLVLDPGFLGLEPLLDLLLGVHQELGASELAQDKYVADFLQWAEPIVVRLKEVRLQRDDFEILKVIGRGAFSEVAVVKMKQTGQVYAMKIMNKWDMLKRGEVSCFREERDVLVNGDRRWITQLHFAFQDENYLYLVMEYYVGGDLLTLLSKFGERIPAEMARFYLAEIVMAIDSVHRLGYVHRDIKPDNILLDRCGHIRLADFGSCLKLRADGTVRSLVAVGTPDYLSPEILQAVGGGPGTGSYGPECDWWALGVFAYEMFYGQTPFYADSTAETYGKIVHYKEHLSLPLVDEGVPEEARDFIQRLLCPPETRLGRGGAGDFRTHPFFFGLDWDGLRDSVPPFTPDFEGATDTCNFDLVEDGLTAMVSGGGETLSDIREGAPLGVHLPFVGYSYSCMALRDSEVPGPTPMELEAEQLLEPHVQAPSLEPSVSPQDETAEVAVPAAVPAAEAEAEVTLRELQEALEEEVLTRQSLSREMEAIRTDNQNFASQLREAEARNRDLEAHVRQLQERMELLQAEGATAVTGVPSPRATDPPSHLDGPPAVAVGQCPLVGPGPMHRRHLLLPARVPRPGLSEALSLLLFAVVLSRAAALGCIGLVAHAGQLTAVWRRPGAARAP
As to conditions: DMPK, LanthaScreen Binding.

Experiment [6] addresses off-target kinases (Homo sapiens, UniProt Q5S007). Conditions: ATP Km app, Adapta.
Experiment [7] addresses off-target kinases (Homo sapiens, UniProt Q9P0L2). Conditions: MARK1 (MARK), ATP Km app, ZLYTE.

Sequence of off-target kinases (Homo sapiens, UniProt Q5S007) (Q5S007 whole entry): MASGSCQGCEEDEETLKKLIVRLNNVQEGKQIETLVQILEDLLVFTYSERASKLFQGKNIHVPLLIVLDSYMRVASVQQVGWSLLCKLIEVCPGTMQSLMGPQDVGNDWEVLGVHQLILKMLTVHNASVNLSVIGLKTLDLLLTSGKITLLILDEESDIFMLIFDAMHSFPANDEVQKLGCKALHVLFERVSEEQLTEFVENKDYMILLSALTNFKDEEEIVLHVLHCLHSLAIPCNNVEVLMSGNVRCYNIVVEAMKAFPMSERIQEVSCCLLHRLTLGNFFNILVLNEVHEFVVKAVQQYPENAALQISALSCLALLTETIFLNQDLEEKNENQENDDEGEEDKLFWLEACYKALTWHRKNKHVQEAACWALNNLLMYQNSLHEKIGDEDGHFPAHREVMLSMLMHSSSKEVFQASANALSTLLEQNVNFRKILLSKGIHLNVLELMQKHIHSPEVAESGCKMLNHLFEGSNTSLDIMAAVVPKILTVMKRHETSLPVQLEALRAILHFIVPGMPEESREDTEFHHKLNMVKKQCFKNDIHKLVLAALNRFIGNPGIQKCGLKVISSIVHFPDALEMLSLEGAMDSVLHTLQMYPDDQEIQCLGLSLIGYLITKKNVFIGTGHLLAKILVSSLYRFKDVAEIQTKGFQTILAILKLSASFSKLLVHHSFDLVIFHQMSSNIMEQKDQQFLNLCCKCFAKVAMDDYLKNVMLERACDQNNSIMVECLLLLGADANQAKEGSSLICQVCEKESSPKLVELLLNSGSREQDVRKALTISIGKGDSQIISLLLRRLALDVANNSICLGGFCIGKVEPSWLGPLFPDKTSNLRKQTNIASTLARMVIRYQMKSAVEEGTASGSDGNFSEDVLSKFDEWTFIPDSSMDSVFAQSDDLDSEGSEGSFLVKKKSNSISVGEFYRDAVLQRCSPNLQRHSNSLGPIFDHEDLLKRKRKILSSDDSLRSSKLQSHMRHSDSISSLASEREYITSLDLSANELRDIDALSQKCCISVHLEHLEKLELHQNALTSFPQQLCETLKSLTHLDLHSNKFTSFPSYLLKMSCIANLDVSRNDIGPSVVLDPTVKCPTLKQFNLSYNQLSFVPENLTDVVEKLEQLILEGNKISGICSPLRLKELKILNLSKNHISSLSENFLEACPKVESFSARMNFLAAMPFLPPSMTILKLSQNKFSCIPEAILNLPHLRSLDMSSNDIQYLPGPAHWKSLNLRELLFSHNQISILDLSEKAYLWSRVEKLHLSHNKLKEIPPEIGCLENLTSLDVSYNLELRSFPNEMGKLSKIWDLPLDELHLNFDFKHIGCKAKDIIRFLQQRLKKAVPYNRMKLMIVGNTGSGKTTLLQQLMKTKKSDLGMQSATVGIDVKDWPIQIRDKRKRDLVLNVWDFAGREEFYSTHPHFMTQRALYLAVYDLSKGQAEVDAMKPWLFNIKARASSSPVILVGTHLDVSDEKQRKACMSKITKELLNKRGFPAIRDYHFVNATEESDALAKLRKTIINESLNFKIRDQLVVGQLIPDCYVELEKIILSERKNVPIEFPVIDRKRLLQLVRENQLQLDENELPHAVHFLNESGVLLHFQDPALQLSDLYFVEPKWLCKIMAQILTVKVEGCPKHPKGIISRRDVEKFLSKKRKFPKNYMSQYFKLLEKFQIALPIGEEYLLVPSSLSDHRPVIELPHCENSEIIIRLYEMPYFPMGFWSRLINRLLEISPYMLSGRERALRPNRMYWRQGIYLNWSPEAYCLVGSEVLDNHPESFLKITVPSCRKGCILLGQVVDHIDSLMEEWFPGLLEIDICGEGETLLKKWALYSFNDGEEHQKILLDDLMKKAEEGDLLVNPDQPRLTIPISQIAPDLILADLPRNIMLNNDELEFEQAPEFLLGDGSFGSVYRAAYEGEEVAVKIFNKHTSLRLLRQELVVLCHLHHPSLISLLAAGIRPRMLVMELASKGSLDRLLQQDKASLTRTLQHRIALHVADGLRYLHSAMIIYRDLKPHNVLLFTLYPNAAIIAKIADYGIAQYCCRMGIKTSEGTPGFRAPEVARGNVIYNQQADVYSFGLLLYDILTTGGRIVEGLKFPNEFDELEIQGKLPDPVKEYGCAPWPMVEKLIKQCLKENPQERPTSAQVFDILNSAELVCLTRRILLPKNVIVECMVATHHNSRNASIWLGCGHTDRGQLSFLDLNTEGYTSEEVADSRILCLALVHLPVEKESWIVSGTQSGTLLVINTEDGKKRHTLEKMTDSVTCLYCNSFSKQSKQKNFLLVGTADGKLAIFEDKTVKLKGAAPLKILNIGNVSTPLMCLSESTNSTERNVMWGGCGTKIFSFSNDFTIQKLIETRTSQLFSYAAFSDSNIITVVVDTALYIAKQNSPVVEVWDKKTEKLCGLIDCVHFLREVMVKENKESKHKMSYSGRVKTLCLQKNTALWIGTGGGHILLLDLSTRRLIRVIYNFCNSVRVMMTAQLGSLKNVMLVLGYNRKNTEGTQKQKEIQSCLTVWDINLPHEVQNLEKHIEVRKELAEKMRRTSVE
Sequence of off-target kinases (Homo sapiens, UniProt Q9P0L2) (Q9P0L2 whole entry): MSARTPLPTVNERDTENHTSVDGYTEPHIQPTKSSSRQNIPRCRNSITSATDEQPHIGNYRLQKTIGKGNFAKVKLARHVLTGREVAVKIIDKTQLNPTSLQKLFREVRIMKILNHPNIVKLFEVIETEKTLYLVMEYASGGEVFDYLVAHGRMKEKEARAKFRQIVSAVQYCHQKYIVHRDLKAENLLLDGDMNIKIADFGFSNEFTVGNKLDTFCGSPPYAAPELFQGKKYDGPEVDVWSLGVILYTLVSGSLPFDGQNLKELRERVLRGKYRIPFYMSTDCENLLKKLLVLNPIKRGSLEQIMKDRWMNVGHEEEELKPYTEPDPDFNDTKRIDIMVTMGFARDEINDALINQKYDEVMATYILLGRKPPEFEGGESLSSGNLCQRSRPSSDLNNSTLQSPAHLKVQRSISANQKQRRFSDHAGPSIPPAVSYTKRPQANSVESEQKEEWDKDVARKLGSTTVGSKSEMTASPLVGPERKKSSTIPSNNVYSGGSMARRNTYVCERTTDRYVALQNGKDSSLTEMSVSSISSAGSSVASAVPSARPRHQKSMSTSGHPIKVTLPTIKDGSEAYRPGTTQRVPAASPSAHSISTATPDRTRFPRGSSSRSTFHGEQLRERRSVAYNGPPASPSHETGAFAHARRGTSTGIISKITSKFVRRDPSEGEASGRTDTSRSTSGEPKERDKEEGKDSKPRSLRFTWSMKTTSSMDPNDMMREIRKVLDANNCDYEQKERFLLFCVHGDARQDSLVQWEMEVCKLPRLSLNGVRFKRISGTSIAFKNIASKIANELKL
Sequence of off-target kinases (Homo sapiens, UniProt P00533, T790M) (P00533 25-1210 T790M): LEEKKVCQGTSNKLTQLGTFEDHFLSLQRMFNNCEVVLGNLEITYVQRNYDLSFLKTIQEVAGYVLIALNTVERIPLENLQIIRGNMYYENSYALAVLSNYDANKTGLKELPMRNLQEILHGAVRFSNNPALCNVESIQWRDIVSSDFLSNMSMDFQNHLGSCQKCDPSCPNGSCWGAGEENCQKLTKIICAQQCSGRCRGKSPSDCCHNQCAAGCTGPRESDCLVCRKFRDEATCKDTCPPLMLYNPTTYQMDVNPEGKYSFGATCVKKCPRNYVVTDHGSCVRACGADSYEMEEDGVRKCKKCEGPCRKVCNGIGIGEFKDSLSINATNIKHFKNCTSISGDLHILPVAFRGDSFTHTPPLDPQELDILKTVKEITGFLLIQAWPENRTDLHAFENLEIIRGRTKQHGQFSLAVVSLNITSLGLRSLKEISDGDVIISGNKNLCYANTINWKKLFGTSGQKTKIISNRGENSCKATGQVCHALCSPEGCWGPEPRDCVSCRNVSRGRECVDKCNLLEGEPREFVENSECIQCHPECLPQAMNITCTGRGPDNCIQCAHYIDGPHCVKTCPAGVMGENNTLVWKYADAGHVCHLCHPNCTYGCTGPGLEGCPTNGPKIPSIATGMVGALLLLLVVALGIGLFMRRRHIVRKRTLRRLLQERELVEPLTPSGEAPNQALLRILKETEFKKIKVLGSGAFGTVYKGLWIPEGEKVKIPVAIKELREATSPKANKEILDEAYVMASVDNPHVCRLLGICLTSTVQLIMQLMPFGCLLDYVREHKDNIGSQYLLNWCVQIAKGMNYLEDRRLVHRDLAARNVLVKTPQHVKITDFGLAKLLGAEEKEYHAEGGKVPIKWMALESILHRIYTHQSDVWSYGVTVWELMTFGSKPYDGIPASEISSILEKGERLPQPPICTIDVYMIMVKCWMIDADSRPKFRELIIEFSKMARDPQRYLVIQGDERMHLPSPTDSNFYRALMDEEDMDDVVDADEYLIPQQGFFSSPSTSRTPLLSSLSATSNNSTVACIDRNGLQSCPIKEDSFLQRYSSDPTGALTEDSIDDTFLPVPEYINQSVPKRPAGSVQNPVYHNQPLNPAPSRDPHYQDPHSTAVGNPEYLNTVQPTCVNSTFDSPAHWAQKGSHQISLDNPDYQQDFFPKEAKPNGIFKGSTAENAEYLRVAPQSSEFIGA

Consider `N#Cc1cc(-c2ncnc(Nc3ccc(N4CCN(C5COC5)CC4)cc3)n2)ccc1OC1CCOCC1` [Compound 1, 5-(4-((4-(4-(oxetan-3-yl)piperazin-1-yl)phenyl)amino)-1,3,5-triazin-2-yl)-2-((tetrahydro-2H-pyran-4-yl)oxy)benzonitrile], for which the inhibition in experiment [1] (read-out: % Inhibition 1) was 6%; in experiment [1] (read-out: % Inhibition 2), 3%; in experiment [1] (read-out: % Inhibition Avg), 4%; in experiment [2] (read-out: % Inhibition 1), 25%; in experiment [2] (read-out: % Inhibition 2), 25%; in experiment [2] (read-out: % Inhibition Avg), 25%. Besides, the inhibition turned out to be 51% in experiment [3] (read-out: % Inhibition 1); 53% in experiment [3] (read-out: % Inhibition 2); 52% in experiment [3] (read-out: % Inhibition Avg); 29% in experiment [4] (read-out: % Inhibition 1); 30% in experiment [4] (read-out: % Inhibition 2); 30% in experiment [4] (read-out: % Inhibition Avg). Besides, the inhibition in experiment [5] (read-out: % Inhibition 1) was determined as 76%; in experiment [5] (read-out: % Inhibition 2), 79%; in experiment [5] (read-out: % Inhibition Avg), 78%; in experiment [6] (LRRK2, read-out: % Inhibition 1), 99%; in experiment [6] (LRRK2, read-out: % Inhibition 2), 100%; in experiment [6] (LRRK2, read-out: % Inhibition Avg), 100%. Further, the inhibition in experiment [6] (LRRK2 FL, read-out: % Inhibition 1) amounted to 98%; in experiment [6] (LRRK2 FL, read-out: % Inhibition 2), 98%; in experiment [6] (LRRK2 FL, read-out: % Inhibition Avg), 98%; in experiment [7] (read-out: % Inhibition 1), 85%; in experiment [7] (read-out: % Inhibition 2) it was 87%; in experiment [7] (read-out: % Inhibition Avg) it was 86%.

These data come from patent US11572590B2, “Methods for evaluating tumor cell spheroids using 3D microfluidic cell culture device” (Dana-Farber Cancer Institute, Inc., priority 2017, dated 2023).
